Experiments:
[1] = target: T1, E. coli PBP3 (Escherichia coli, UniProt P0AD68); experiment: Bocillin FL competition binding assay, PBP3; parameters: species or system Escherichia coli K12; details: 15 min pre-incubation
T1 construct: 100 μg's of total membrane protein extracts containing PBPs; endogenous in cells; host or cells: Escherichia coli K12, membrane protein fraction
Outline: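 E. coli K12 membrane extracts (100 µg protein) pre-incubated 15 min with compound (0.005–2,480 µg/mL) in pH 7 phosphate/350 mM NaCl, then labelled with Bocillin FL 30 min at 35°C; SDS-PAGE fluorescence (ex 450/em 520 nm), μg/mL reported. PBP1a/1b unresolved, reported combined.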

[2] = test system: E. coli DH5a harboring SHV-5; experiment: Broth microdilution MIC, engineered E. coli expressing SHV-5; format: cell-based; details: Escherichia coli, read-out: MIC, β-lactamase SHV
Method: (§1) To determine the ability of test compounds to potentiate the inhibition of the growth of bacterial strains, classic cell based broth microdilution MIC assays were employed. MIC assays are performed according to CLSI methods except where otherwise noted (CLSI, 2011 and CLSI, 2009). The reference strain S. aureus ATCC 29213 and the hyper-permeable E. coli 901C were used to determine the ability of the PBP compounds to inhibit bacterial growth. Briefly, cryo-preserved bacterial cultures of clinical strains are streaked for isolation on appropriate agar medium, in this case Mueller Hinton II agar. Following incubation to allow formation of colonies these plates are sealed with parafilm and stored refrigerated for up to two weeks. For preparation of assay inocula and to ensure low variability, at least 5 colonies are picked from the agar plates with an inoculating loop and aseptically transferred to a culture tube containing 3 mL of Mueller-Hinton Broth (supplemented with divalent cations to required levels based on Manufacturers' certification). The broth culture is grown for 3-5 hours at 37° C. with shaking at 200 rpm. Meanwhile, 2-fold serial dilutions of test compounds are conducted in a 96 well plate with a final volume of 75 μL per well at 2-fold the final desired concentration. After the dilution plates are set up the growing cultures are then diluted in a cuvette containing MH II broth and the optical density is measured at 600 nm. Inocula are diluted such that 75 μL of this culture in Mueller-Hinton Broth results in a starting bacterial concentration of 5×10^5 CFU/mL when added to the dilution plates. The plates are incubated 16-20 hours at 37° C. The MIC is read visually as the lowest concentration well with no bacterial growth.
(§2) To determine if test compounds were affected by various known β-lactamases, the inhibition of the growth of engineered strains of Escherichia coli harboring select single β-lactamases were tested. […]

[3] = test system: E. coli DH5a harboring TEM-24; experiment: Broth microdilution MIC, engineered E. coli expressing TEM-24; format: cell-based; details: Escherichia coli, read-out: MIC, β-lactamase TEM
Method: as §1, §2

[4] = test system: E. coli DH5a harboring KPC-2; experiment: microbe, parasite or virus in culture; format: cell-based; details: Escherichia coli, read-out: MIC, β-lactamase KPC
Method: To determine the ability of test compounds to potentiate the inhibition of the growth of bacterial strains, classic cell based broth microdilution MIC assays were employed. MIC assays are performed according to CLSI methods except where otherwise noted (CLSI, 2011 and CLSI, 2009). The reference strain S. aureus ATCC 29213 and the hyper-permeable E. coli 901C were used to determine the ability of the PBP compounds to inhibit bacterial growth. Briefly, cryo-preserved bacterial cultures of clinical strains are streaked for isolation on appropriate agar medium, in this case Mueller Hinton II agar. Following incubation to allow formation of colonies these plates are sealed with parafilm and stored refrigerated for up to two weeks. For preparation of assay inocula and to ensure low variability, at least 5 colonies are picked from the agar plates with an inoculating loop and aseptically transferred to a culture tube containing 3 mL of Mueller-Hinton Broth (supplemented with divalent cations to required levels based on Manufacturers' certification). The broth culture is grown for 3-5 hours at 37° C. with shaking at 200 rpm. […] After the dilution plates are set up the growing cultures are then diluted in a cuvette containing MH II broth and the optical density is measured at 600 nm. […] The MIC is read visually as the lowest concentration well with no bacterial growth. […]

[5] = target: T2, E. coli K12 PBP1b (Escherichia coli, UniProt P02919); experiment: Competition binding assay using Bodipy-FL boronic acid probe (Example 125); details: Bodipy-FL boronic acid probe (Example 125) 30 μM, 10 minutes pre-incubation, 10 minutes reaction
T2 construct: endogenous in cells; host or cells: Escherichia coli K12, membrane protein fraction
Method: Penicillin binding proteins were isolated from Escherichia coli K12 by growth of Escherichia coli K12 from a single colony in 4 L of Luria-Bertani (LB) broth at 35° C. and 250 rpm to an OD600 nm of 0.5. The cells were harvested by centrifugation at 7,000×g for 10 min. at 4° C. Cells were resuspended and washed in 50 mM potassium phosphate pH 7.5. The cells were re-suspended in sonication buffer [50 mM Tris-HCl pH 7.5, 1 mM MgCl2, 1 mM beta-mercaptoethanol, and 5 μg/mL DNAse I] and sonicated by 4 passes of 30 seconds at 45 W on ice. The sample was clarified by centrifugation at 3,000×g to remove cell debris and unbroken cells and supernatant containing the membrane proteins was retained. The membrane proteins including the PBPs were further purified from soluble constituents by an ultracentrifugation step at 100,000×g for 30 min. at 4° C. The membrane proteins are washed twice with 10 mM sodium phosphate pH 7, resuspended in a volume of 5 mL, quantitated by BCA assay, adjusted to […] and frozen at −80° C. until use.
The adapted Bocillin FL competition binding method described herein incorporates a 15 min. pre-incubation of test compound with isolated PBPs to attempt to balance the difference in mechanism of inhibition between beta-lactams (largely irreversible covalent bond to active site Serine) and the boron-containing PBP inhibitor test compounds (reversible covalent bond to active site Serine). Briefly, 50 μL reactions consisted of 100 μg's of total membrane protein extracts containing PBPs incubated with a dilution series of test compound ranging from 0.005 μg/mL to 2,480 μg/mL in 10 mM sodium phosphate pH7 containing 350 mM NaCl. Thirty minute reactions at 35° C. were initiated by addition of […] Bocillin FL, quenched by addition of SDS-PAGE loading buffer containing sodium dodecyl sulfate (SDS) and heated for 15 minutes at 95° C. to denature proteins in preparation for SDS-polyacrylamide gel electrophoresis. The Bocillin FL labeled PBPs are then separated by SDS-PAGE in Novex NuPage 10% Bis-Tris pre-cast gels (Invitrogen). The SDS-PAGE gel, post-electrophoresis, is then washed in water to remove excess SDS for 10 minutes at room temperature and placed on the scanning bed of a GE Healthcare/Amersham Biosciences Storm 860 fluorescence scanner. The excitation wavelength is in the blue spectrum at 450 nm and the emission at 520 nm is captured by the instrument. Effective PBP inhibitors are detected by a reduction in Bocillin FL labeling of the particular PBP over the dose range of test compound in a dose-responsive manner. High molecular weight PBP 1a/1b are not resolved by these gels, thus we report HMW PBP binding results in μg/mL for PBPs 1a/1b combined as well as for PBP2 and PBP3.
To determine the ability of boronic acid-based test PBP inhibitors to bind Penicillin Binding Proteins (PBPs), a competition binding assay using a Bodipy-FL-labeled boronic acid PBP inhibitor (Example 125) was adapted from the classical method used to assess PBP potency of beta-lactams using Bocillin-FL (fluorescently-labeled penicillin V). The method is identical to that described in Example I for the Bocillin-FL competition binding assay with the following exceptions, the Bodipy-FL boronic acid probe (Example 125) is used at a final concentration of 30 μM, pre-incubation time of test compound with PBP enzymes is 10 minutes and reaction time is set for 10 minutes and reactions are prepared for SDS-PAGE analysis by simply adding SDS-containing loading buffer. Representative results are shown in Table 5, where A represents a potency of >1000 μg/mL, B represents a potency between 64 and 1000 μg/mL inclusive, and C represents a potency of <64 μg/mL. NT=Not Tested.

T2 sequence (P02919 whole entry): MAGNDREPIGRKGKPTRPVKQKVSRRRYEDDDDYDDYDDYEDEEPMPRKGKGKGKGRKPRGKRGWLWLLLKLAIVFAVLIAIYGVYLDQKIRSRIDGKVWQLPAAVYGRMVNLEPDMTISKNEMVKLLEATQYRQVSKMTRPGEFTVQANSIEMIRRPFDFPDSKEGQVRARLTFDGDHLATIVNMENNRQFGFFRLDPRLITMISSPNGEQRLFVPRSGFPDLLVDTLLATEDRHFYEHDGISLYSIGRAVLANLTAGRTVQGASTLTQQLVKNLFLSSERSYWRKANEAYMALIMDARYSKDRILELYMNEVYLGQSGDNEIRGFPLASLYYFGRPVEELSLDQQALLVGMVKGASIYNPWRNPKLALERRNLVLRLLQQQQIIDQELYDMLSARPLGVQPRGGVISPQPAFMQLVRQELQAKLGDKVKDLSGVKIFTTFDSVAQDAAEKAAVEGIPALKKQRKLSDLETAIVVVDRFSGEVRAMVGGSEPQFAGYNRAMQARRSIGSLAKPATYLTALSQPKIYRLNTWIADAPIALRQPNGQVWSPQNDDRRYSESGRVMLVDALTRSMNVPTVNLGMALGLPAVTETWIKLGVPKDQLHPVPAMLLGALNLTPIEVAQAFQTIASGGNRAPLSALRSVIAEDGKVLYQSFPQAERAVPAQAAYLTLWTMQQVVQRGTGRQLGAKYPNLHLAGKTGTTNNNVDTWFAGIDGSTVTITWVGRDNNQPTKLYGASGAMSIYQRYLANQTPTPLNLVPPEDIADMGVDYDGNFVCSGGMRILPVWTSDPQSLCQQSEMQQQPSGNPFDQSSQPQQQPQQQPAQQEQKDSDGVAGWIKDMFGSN
T1 sequence (P0AD68 1-577): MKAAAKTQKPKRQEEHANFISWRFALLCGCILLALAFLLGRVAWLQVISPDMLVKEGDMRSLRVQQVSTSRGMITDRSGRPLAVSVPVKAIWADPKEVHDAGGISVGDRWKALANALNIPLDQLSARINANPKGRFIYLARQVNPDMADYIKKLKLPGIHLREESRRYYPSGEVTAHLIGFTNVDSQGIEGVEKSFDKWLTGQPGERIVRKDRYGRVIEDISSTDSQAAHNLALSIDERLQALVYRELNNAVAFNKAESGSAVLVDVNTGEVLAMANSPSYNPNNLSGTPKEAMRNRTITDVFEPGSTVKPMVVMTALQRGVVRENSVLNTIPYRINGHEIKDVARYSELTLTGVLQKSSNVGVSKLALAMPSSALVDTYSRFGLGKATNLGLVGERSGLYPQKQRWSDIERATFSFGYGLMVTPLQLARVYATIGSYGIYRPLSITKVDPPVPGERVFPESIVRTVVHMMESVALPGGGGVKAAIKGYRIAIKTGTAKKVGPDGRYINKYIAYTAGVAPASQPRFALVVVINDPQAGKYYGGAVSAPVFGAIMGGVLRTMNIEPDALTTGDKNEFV

Nc1nc(/C(=N/O)C(=O)N[C@H]2Cc3cccc(C(=O)O)c3OB2O)cs1 [Example 6, (R,Z)-3-(2-(2-aminothiazol-4-yl)-2-(hydroxyimino)acetamido)-2-hydroxy-3,4-dihydro-2H-benzo[e][1,2]oxaborinine-8-carboxylic Acid]
E. coli PBP3 Potency [1]: B (B represents a potency between 64 and 1000 μg/mL inclusive) | MIC [2]: 16 µg/mL | MIC [3]: 16 µg/mL | MIC [4]: 16 µg/mL | E. coli K12 PBP1b Potency [5]: C (C represents a potency of <64 μg/mL)
